Where only a bound is given, the exact number is not on record here.

The subject of the experiment is NLRP3 inflammasome pathway. The experiment is described as follows: NLRP3 inflammasome pathway activation assay, MSU stimulation, IL-1β HTRF. In kind it is cell-based. To be noted: Homo sapiens, 3 h, Table 7; PMA-differentiated, LPS-primed cells; MSU 200 μg/mL for 3 h; IL-1β release; read-out: IC50 Human monocyte-like cells MSU. The protocol: The following assays were used to determine the inhibitory activity of test compounds on the NLRP3 inflammasome pathway using common stimuli Nigericin (Invivogen) or monosodium urate crystals (MSU) (Invivogen).
Human monocyte-like cells were cultured in RPMI-1640 Glutamax medium supplemented with 10% heat inactivated FBS (Fetal Bovine Serum) and 50 U/mL penicillin-streptomycin (Life Technologies).
Human monocyte-like cells were seeded at 25000 per well in a 384-well plate and were differentiated overnight into macrophages with 10 ng/mL PMA (Phorbol Myristate Acetate). The following day, medium containing 10 ng/mL LPS (Lipopolysaccharide) was added. After 3 hours of LPS priming, concentrations of test compound in the range from […] were added 30 min prior to NLRP3 inflammasome pathway stimulation with Nigericin 3.75 μM or MSU 200 μg/mL for 3 h.
For IL-1p quantification, supernatants were analyzed using HTRF kit according to the manufacturer's instructions (Cisbio 62HIL1BPEH). Briefly, in a 384-well ProxiPlate™ microplate, 8 μl of sample was mixed, with 5 μl of Anti-IL1β Cryptate antibody (40×) and Anti-IL1β XL antibody (40×). Then, incubated overnight at RT. Reading was done using an EnVision Reader (PerkinElmer).
IC50 (concentration corresponding to 50% inhibition) were determined using GraphPad Prism 9.
With `Cc1cc(C(F)(F)F)cc(O)c1-c1nc2nc(NC3CCN(C)C3)ccc2n1C(C)C` (centres unmarked) [Example 10, 2-(1-isopropyl-5-((1-methylpyrrolidin-3-yl)amino)-1H-imidazo[4,5-b]pyridin-2-yl)-3-methyl-5-(trifluoromethyl)phenol], the IC50 was under 100 nM.
Consider `Cc1cc(C(F)(F)F)cc(O)c1-c1nc2nc(N[C@@H]3CCN(C)C3)ccc2n1C(C)C` [Example 10B, (R)-2-(1-isopropyl-5-((1-methylpyrrolidin-3-yl)amino)-1H-imidazo[4,5-b]pyridin-2-yl)-3-methyl-5-(trifluoromethyl)phenol], for which the concentration for half-maximal inhibition (IC50) was under 100 nM.
Turning to `CCn1c(-c2ccc(C(F)(F)F)cc2O)nc2nc(N[C@@H]3CCCN(C)C3)ccc21` [Example 12, (R)-2-(1-ethyl-5-((1-methylpiperidin-3-yl)amino)-1H-imidazo[4,5-b]pyridin-2-yl)-5-(trifluoromethyl)phenol], the IC50 lay in the range of 100 to 1000 nM.
With `CC(C)n1c(-c2ccc(C(F)(F)F)cc2O)nc2nc(N[C@@H]3CCCN(C)C3)ccc21` [Example 13, (R)-2-(1-isopropyl-5-((1-methylpiperidin-3-yl)amino)-1H-imidazo[4,5-b]pyridin-2-yl)-5-(trifluoromethyl)phenol], the IC50 lay within 100 to 1000 nM.
Take `CCn1c(-c2ccc(C(F)(F)F)cc2O)nc2nc(NC)ccc21` [Example 14, 2-(1-ethyl-5-(methylamino)-1H-imidazo[4,5-b]pyridin-2-yl)-5-(trifluoromethyl)phenol]: the half-inhibitory concentration (IC50) lay within 100 to 1000 nM.
As to `CNc1ccc2c(n1)nc(-c1c(C)cc(C(F)(F)F)cc1O)n2C(C)C` [Example 15, 2-(1-isopropyl-5-(methylamino)-1H-imidazo[4,5-b]pyridin-2-yl)-3-methyl-5-(trifluoromethyl)phenol], the half-maximal inhibitory concentration (IC50) was in the range of 100 to 1000 nM.
As for `CCn1c(-c2ccc(C(F)(F)F)cc2O)nc2nc(NCCO)ccc21` [Example 16, 2-(1-ethyl-5-((2-hydroxyethyl)amino)-1H-imidazo[4,5-b]pyridin-2-yl)-5-(trifluoromethyl)phenol], the IC50 is 100 to 1000 nM.
Regarding `CC(C)n1c(-c2ccc(C(F)(F)F)cc2O)nc2nc(NCCO)ccc21` [Example 17, 2-(5-((2-hydroxyethyl)amino)-1-isopropyl-1H-imidazo[4,5-b]pyridin-2-yl)-5-(trifluoromethyl)phenol], the half-inhibitory concentration (IC50) lay within 100 to 1000 nM.
For `CN1CC[C@@H](Oc2ccc3c(n2)nc(-c2ccc(C(F)(F)F)cc2O)n3C)C1` [Example 27, (R)-2-(1-methyl-5-((1-methylpyrrolidin-3-yl)oxy)-1H-imidazo[4,5-b]pyridin-2-yl)-5-(trifluoromethyl)phenol], the concentration for half-maximal inhibition (IC50) is under 100 nM.
Regarding `Cc1cc(C(F)(F)F)cc(O)c1-c1nc2nc(O[C@@H]3CCN(C)C3)ccc2n1C` [Example 28, (R)-3-methyl-2-(1-methyl-5-((1-methylpyrrolidin-3-yl)oxy)-1H-imidazo[4,5-b]pyridin-2-yl)-5-(trifluoromethyl)phenol], the IC50 was under 100 nM.
Consider `CCn1c(-c2c(C)cc(Cl)cc2O)nc2nc(OC)ccc21` [Example 30, 5-chloro-2-(1-ethyl-5-methoxy-1H-imidazo[4,5-b]pyridin-2-yl)-3-methylphenol], for which the IC50 fell in the range of 100 to 1000 nM.
Then `COc1ccc2c(n1)nc(-c1c(C)cc(Cl)cc1O)n2C(C)C` [Example 31, 5-chloro-2-(1-isopropyl-5-methoxy-1H-imidazo[4,5-b]pyridin-2-yl)-3-methylphenol], with 100 to 1000 nM; and `Cc1cc(C(F)(F)F)cc(O)c1-c1nc2nc(OCCO)ccc2n1C(C)C` [Example 33, 2-(5-(2-hydroxyethoxy)-1-isopropyl-1H-imidazo[4,5-b]pyridin-2-yl)-3-methyl-5-(trifluoromethyl)phenol], with 100 to 1000 nM.
As to `COc1ccc2c(n1)nc(-c1c(C)cc(C(F)(F)F)cc1O)n2C(C)C` [Example 34, 2-(1-isopropyl-5-methoxy-1H-imidazo[4,5-b]pyridin-2-yl)-3-methyl-5-(trifluoromethyl)phenol], the IC50 lay within 100 to 1000 nM.
